In patent US20170239351A1, “Therapeutic Combinations of a BTK Inhibitor, a PI3K Inhibitor, a JAK-2 Inhibitor, a PD-1 Inhibitor, and/or a PD-L1 Inhibitor” (Acerta Pharma B.V., priority 2014, published 2017):

How the values were obtained:
[1] = target: BTK (Homo sapiens, UniProt Q06187); experiment: BTK target occupancy in relapsed/refractory CLL patients; assay type: in vivo; conditions: at lower dosage versus ibrutinib
[2] = target: T1, BTK (Mus musculus, UniProt P35991); experiment: Molecular probe assay of irreversible BTK occupancy in MDSCs; assay type: in vivo, tumor bearing PDA mice; conditions: 15 mg/kg BID; Day 8 at 4 hours post dose (N=5)
T1 construct: MDSCs were purified from tumor bearing PDA mice; endogenous in cells; host or cells: granulocytic and monocytic MDSCs purified from tumour-bearing PDA mice
Excerpt: A molecular probe assay was used to calculate the percent irreversible occupancy of total BTK.

[3] = tested on: CD8^+ T cell function; experiment: Cytotoxicity assay for CD8+ T cell function; assay type: cell-based; conditions: relative to vehicle
[4] = Functional observation battery (GLP safety pharmacology); conditions: doses through 300 mg/kg
[5] = tested on: ID8 ovarian cancer; experiment: ID8 syngeneic orthotropic ovarian cancer model; assay type: in vivo, mice
[6] = tested on: ID8 ovarian cancer; experiment: ID8 syngeneic orthotropic ovarian cancer murine model; assay type: in vivo, mice
Excerpt: Human ovarian cancer models, including the ID8 syngeneic orthotropic ovarian cancer model and other animal models, are described in Fong and Kakar, J. Ovarian Res. 2009, 2, 12; Greenaway, et al., Gynecol. Oncol. 2008, 108, 385-94; Urzua, et al., Tumour Biol. 2005, 26, 236-44; Janat-Amsbury, et al., Anticancer Res. 2006, 26, 3223-28; Janat-Amsbury, et al., Anticancer Res. 2006, 26, 2785-89. […] The results of the study are shown in FIG. 100, FIG. 101, FIG. 102, FIG. 103, FIG. 104, FIG. 105, FIG. 106, and FIG. 107.
Each cohort consisted of 12 mice. Every two weeks mice are injected with luciferin, and tumor growth was monitored using the Xenogen system (Caliper Life Sciences, PerkinElmer, Hopkinton, Mass., USA). Tumor size was measured by calculated flux.
The experiments were performed as described in Example 7.

[7] = tested on: human platelet-mediated thrombosis; set-up: species or system VWF HA1 mice (human platelets); conditions: in vivo
Procedure: […]. Injury to the vessel wall of arterioles ([…] diameter) was performed using a pulsed nitrogen dye laser (440 nm, Photonic Instruments) applied through a 20× water-immersion Olympus objective (LUMPlanF1, 0.5 numerical aperature (NA)) of a Zeiss Axiotech vario microscope. Human platelet and wall interactions were visualized by fluorescence microscopy using a system equipped with a Yokogawa CSU-22 spinning disk confocal scanner, iXON EM camera, and 488 nm and 561 nm laser lines to detect BCECF-labeled and rhodamine-labeled platelets, respectively (Revolution XD, Andor Technology). The extent of thrombus formation was assessed for 2 minutes after injury and the area (μm^2) of coverage determined (Image IQ, Andor Technology).
. The BTK inhibitor-treated human platelets were fluorescently labeled and infused continuously through a catheter inserted into the femoral artery. Their behavior in response to laser-induced vascular injury was monitored in real time using two-channel confocal intravital microscopy (Furie and Furie, J. Clin. Invest. 2005, 115(12), 2255-62). Upon induction of arteriole injury untreated platelets rapidly formed thrombi with an average thrombus size of […] (mean±s.e.m.), as shown in FIG. 124 and FIG. 125. […]. […]. […]

[8] = target: CYP3A4 (Homo sapiens, UniProt P08684); experiment: In vitro CYP metabolism and CYP interaction studies; assay type: in vitro ADME
[9] = tested on: expression of activation markers CD69 and CD86; experiment: In vivo potency: BCR stimulated with IgM, CD69 and CD86 expression by flow cytometry; conditions: mice gavaged, 3 h post-dose
Procedure: Mice were gavaged at increasing drug concentration and sacrificed at one time point (3 h post-dose). BCR is stimulated with IgM and the expression of activation markers CD69 and CD86 are monitored by flow cytometry to determine EC50's.

[10] = tested on: NK cells; experiment: Antibody-stimulated NK cell degranulation (CD107a), flow cytometry; assay type: cell-based, human; conditions: DHL-4 target cells
[11] = Brain penetration study; conditions: in vivo
[12] = tested on: CD8^+ T cell function; experiment: IFN-γ level measurements for CD8+ T cell function; assay type: cell-based; conditions: relative to vehicle
[13] = tested on: Raji cells; experiment: Rituximab ADCC assay (51Cr release), healthy donor NK cells; assay type: cell-based, human; conditions: 1 μM
[14] = tested on: KrasL2 NSCLC; experiment: KrasL2 NSCLC model; conditions: in vivo
[15] = Respiratory function study (GLP safety pharmacology); conditions: doses through 300 mg/kg
[16] = tested on: relapsed/refractory CLL; conditions: human, in vivo
[17] = tested on: KPC pancreatic cancer; experiment: KPC pancreatic cancer model; conditions: in vivo
[18] = tested on: CLL; experiment: Clinical study of Formula (XVIII) in CLL; assay type: in vivo
[19] = tested on: regulatory T cell (Treg) development; experiment: Regulatory T cell (Treg) development; assay type: cell-based
[20] = Glutathione binding and depletion in vitro; assay type: in vitro ADME

Sequence of CYP3A4 (P08684 whole entry): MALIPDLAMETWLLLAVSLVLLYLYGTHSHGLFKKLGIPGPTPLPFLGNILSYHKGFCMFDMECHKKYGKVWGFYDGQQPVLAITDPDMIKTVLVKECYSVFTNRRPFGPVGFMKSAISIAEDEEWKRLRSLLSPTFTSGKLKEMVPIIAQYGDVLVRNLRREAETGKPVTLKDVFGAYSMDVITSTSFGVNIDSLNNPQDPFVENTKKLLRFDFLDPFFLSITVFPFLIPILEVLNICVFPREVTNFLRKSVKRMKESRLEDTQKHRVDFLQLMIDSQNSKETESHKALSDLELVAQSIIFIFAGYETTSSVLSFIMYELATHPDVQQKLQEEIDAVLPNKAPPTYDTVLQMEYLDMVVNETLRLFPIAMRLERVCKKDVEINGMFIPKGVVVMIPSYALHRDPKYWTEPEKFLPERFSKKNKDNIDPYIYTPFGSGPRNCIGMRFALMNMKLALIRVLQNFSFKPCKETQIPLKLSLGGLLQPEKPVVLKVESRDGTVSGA
Sequence of BTK (Homo sapiens, UniProt Q06187) (Q06187 whole entry): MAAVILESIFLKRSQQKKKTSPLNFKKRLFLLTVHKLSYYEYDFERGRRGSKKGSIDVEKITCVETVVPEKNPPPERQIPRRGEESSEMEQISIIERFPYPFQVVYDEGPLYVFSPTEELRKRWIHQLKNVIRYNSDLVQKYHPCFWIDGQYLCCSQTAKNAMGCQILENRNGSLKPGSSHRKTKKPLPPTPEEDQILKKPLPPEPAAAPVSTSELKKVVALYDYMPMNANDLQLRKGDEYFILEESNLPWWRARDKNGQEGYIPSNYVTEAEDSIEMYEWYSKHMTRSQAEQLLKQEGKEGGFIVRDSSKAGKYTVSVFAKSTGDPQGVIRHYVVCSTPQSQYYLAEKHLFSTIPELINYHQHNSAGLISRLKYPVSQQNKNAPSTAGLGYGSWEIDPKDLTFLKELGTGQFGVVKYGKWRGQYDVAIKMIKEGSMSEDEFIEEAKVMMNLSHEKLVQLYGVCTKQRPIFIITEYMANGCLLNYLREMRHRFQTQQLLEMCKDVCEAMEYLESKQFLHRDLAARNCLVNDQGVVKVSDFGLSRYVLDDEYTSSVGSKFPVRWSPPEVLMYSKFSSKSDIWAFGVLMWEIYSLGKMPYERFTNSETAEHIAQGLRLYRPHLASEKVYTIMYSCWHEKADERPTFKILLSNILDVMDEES
T1 sequence (P35991 whole entry): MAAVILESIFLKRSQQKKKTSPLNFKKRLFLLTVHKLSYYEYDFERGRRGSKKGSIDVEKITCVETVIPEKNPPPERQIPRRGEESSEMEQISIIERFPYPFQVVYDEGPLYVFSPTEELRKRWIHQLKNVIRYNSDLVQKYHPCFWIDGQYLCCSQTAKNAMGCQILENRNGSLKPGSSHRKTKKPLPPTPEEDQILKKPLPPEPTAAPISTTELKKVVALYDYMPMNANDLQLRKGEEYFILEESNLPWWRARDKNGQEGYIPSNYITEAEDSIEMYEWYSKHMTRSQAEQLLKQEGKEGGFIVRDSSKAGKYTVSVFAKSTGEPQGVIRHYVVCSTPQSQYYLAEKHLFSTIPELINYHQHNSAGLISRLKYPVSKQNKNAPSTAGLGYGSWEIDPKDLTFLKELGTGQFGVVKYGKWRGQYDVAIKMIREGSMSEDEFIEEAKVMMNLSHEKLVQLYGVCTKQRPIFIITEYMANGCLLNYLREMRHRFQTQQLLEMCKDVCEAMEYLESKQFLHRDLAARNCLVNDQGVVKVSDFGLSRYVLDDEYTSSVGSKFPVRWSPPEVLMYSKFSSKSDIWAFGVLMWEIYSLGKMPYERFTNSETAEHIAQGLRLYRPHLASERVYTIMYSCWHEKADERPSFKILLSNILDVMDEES

CC#CC(=O)N1CCC[C@H]1c1nc(-c2ccc(C(=O)Nc3ccccn3)cc2)c2c(N)nccn12 [Formula (XVIII), (S)-4-(8-amino-3-(1-(but-2-ynoyl)pyrrolidin-2-yl)imidazo[1,5-a]pyrazin-1-yl)-N-(pyridin-2-yl)benzamide]
BTK target occupancy [1]: improved BTK target occupancy
BTK occupancy in granulocytic and monocytic MDSC compartment [2]: Complete BTK occupancy
CD8+ T cell function as measured by % cytotoxicity [3]: no effect on CD8^+ T cell function
neurobehavioral effects or body temperature [4]: no adverse effects
CD8+ T cells ([5]; mouse, in vivo): increase in CD8^+ T cells
immunosuppressive tumor associated Tregs ([5]; mouse, in vivo): significant reduction in immunosuppressive tumor associated Tregs
ID8 ovarian cancer growth ([5]; syngeneic murine model, versus vehicle): impairs ID8 ovarian cancer growth
B regulatory cells (Bregs) ([5]; tumor-bearing mice): significant reduction in B regulatory cells (Bregs)
total B cells ([5]; tumor-bearing mice): significant reduction in total B cells
immunosuppressive tumor associated lymphocytes ([5]; tumor-bearing mice, versus vehicle): significant reduction in immunosuppressive tumor associated lymphocytes
cytolytic CD8^+ T cells ([6]; 15 mg/kg/BID oral): increase
immunosuppressive B cells in tumor-bearing mice ([6]; 15 mg/kg/BID oral): significant reduction
immunosuppressive tumor associated Tregs ([6]; 15 mg/kg/BID oral): significant reduction
ID8 ovarian cancer growth ([6]; Formula (XVIII) 15 mg/kg BID oral, antibody 150 μg): impairs ID8 ovarian cancer growth
effect on thrombus formation [7]: does not interfere with thrombus formation
CYP responsible for loss of parent drug [8]: metabolized by CYP3A4
drug-drug interaction potential via CYP enzymes [8]: very unlikely to cause clinical drug-drug interactions
inhibition of expression of activation markers CD69 and CD86, compared with ibrutinib [9]: more potent at inhibiting expression of activation makers than ibrutinib
inhibition of rituximab-stimulated NK cell degranulation [10]: < 2%
brain penetration (blood-brain barrier) [11]: crosses the blood-brain barrier
CD8+ T cell function as measured by IFN-γ level [12]: no effect on CD8^+ T cell function
effect on rituximab-mediated ADCC [13]: not inhibited
immunosuppressive tumor associated MDSCs [14]: significant reduction in immunosuppressive tumor associated MDSCs
immunosuppressive tumor associated TAMs [14]: significant reduction in immunosuppressive tumor associated TAMs
immunosuppressive tumor associated Tregs [14]: significant reduction in immunosuppressive tumor associated Tregs
respiratory function [15]: no treatment-related adverse effects
maximum tolerated dose (MTD) [16]: not reached
immunosuppressive MDSCs (Gr1+Ly6CHi) in tumor tissues [17]: significantly reduced
immunosuppressive TAMs (CD11b+Ly6ClowF4/80+Csf1r+) in tumor tissues [17]: significantly reduced
immunosuppressive Tregs (CD4+CD25+FoxP3+) in tumor tissues [17]: significantly reduced
apoptosis ([18]; CLL patients treated): increased apoptosis
sum of the product of greatest diameters (SPD) ([18]; CLL patients, compared with ibrutinib): decreases more rapidly
absolute lymphocyte count (ALC) ([18]; CLL patients, relative to ibrutinib data of Byrd, et al.): much smaller relative increase and much faster decrease
CCL2 levels ([18]; patients treated): decrease in CCL2 levels
CXCL12 levels ([18]; patients treated): decrease in CXCL12 levels
effect on Treg development [19]: no effect on regulatory T cell (Treg) development
glutathione binding and depletion [20]: binds to glutathione but does not deplete glutathione
